Laboratory results as given in paper PMC7315563, “Bioactive fluorenes. Part III: 2,7-dichloro-9H-fluorene-based thiazolidinone and azetidinone analogues as anticancer and antimicrobial against multidrug resistant strains agents” (BMC Chemistry, 2020).
Values after ≈ are worked out from the molar mass of the structure shown.

Assays:
[1] = test system: Escherichia coli (E. coli), multidrug resistant clinical isolate; experiment: agar well diffusion assay; format: cell-based; details: 24 h, 500 µg/mL of tested compound
Description: (§1) All microbial strains were kindly provided from the department of Medical Microbiology and Immunology faculty of Medicine Assiut University, these clinical isolates were obtained from clinical cases of infections admitted to Assiut University hospital as urinary tract infections, corneal ulcers, bacterial and fungal pneumonia, otomycosis, oral thrush and wound infections.
(§2) The clinical isolates used were multidrug resistant strains, they were resistant to β lactam (penicillin, amoxacillin, oxacillin), cephalosporins (cefazolin, cefaclor and cefepime) and macrolides (erythromycin and clarithromycin), they included Gram positive bacteria as Staphylococcus aureus (S. aureus), Methicillin-resistant Staphylococcus aureus (MRSA), Streptococcus pneumoniae (S. pneumoniae), and Gram negative bacteria as Escherichia coli (E. coli), Klebsiella pneumoniae (K. pneumoniae), Pseudomonas aeruginosa (P. aeruginosa), and Acinetobacter baumannii (A. baumannii). The fungal strains that were tested are Aspergillus flavus (A. flavus), A. niger (A. niger) and Candida albicans (C. albicans).
(§3) The antimicrobial activity of the fluorene derivatives was initially evaluated by agar well diffusion assay. Mueller–Hinton agar (CM0337) was poured into Petri dishes at 50–60 °C and left to solidify for 15 min. Subsequently, overnight microbial suspensions of tested strains was adjusted to turbidity of 0.5 McFarland Standard, which equals to 1–2 × 10^8 CFU/mL for bacteria and 1–5 × 10^6 for fungi. The microbial inoculums were then diluted in 1:100 ratio in case of bacteria and 1:10 ratio in case of fungi in order to get 1–5 × 10^5 CFU/mL. a sterile cotton swab was dipped into the adjusted microbial suspension and the Mueller–Hinton agar plates were inoculated by evenly streaking cotton swab over the agar medium. Then wells with a diameter of 0.5 cm were cut in the medium with a sterile cork borer. Stock solutions of the flourene derivatives were diluted in DMSO 1% to get 500 μg/mL concentrations. The tested flourene derivatives and controls (50 μL) were dispensed into the wells. The plates were incubated for 24 h at 37 °C for bacteria and C. albicans while at 25 °C for A. falvus and A. niger. The diameters of zones of inhibition (ZOI) around the wells were measured in mm. Following control agents were used: positive control agents—vancomycin (50 μg/mL) for Gram positive bacteria, gentamicin (10 μg/mL) (for Gram negative bacteria) and fluconazole 25 μg/mL for fungi and negative control agent is 1% DMSO.

[2] = test system: Staphylococcus aureus (S. aureus), multidrug resistant clinical isolate; experiment: agar well diffusion assay; format: cell-based; details: Staphylococcus aureus; S. aureus; 500 µg/mL of tested compound; 24 h
Description: as §1, §2, §3

[3] = test system: MDA-MB-231 human breast cancer cells; experiment: cell viability assay (MTT); format: cell-based; details: 24 h; for viability at 1 µg/mL: read-out: Validity (%) for sample concentrations (µg/mL) 1; for viability at 10 µg/mL: read-out: Validity (%) for sample concentrations (µg/mL) 10; for viability at 31.25 µg/mL: read-out: Validity (%) for sample concentrations (µg/mL) 31.25; for viability at 62.5 µg/mL: read-out: Validity (%) for sample concentrations (µg/mL) 62.5; for viability at 125 µg/mL: read-out: Validity (%) for sample concentrations (µg/mL) 125; for viability at 250 µg/mL: read-out: Validity (%) for sample concentrations (µg/mL) 250; for viability at 500 µg/mL: read-out: Validity (%) for sample concentrations (µg/mL) 500
Experimental: (§4) WI-38 normal lung fibroblast cells, A549 lung cancer cells, and MDA-MB-231 breast cancer cells were obtained from VACSERA—Cell Culture Unit, Cairo, Egypt. The cell lines were originally obtained from the American Tissue Culture Collection (ATCC). WI-38, A549, and MDA-MB-231 cell lines were cultured in RPMI-1640 medium supplemented with 10% inactivate fetal bovine serum (FBS) and 1% penicillin/streptomycin were bought (Gibco, Invitrogen, CA). WI-38, A549, and MDA-MB-231 cells were seeded into 96-well plates (at a density of 5000 cells/well). On the following day, cells were treated with different concentrations (0, 1, 10, 31.25, 62.5, 125, 250, 500 µg/mL) of 16 fluorene derivatives in fresh medium and incubated for another 24 h. Cell viability was then assessed using the MTT assay (Sigma Aldrich, St. Louis, MO, USA), and the absorbance was read at 570 nm using an ELISA microplate reader (Molecular Devices, Downingtown, PA, USA).

[4] = test system: WI-38 human normal fibroblast cells; experiment: cell viability assay (MTT); format: cell-based; details: 24 h; for viability at 31.25 µg/mL: read-out: Validity (%) for sample concentrations (µg/mL) 31.25; for viability at 62.5 µg/mL: 62.50 µg/mL, read-out: Validity (%) for sample concentrations (µg/mL) 62.50; for viability at 125 µg/mL: read-out: Validity (%) for sample concentrations (µg/mL) 125; for viability at 250 µg/mL: read-out: Validity (%) for sample concentrations (µg/mL) 250; for viability at 500 µg/mL: read-out: Validity (%) for sample concentrations (µg/mL) 500
Experimental: as §4

[5] = test system: A549 human lung cancer cells; experiment: cell viability assay (MTT); format: cell-based; details: 24 h; for viability at 1 µg/mL: read-out: Validity (%) for sample concentrations (µg/mL) 1; for viability at 10 µg/mL: read-out: Validity (%) for sample concentrations (µg/mL) 10; for viability at 31.25 µg/mL: read-out: Validity (%) for sample concentrations (µg/mL) 31.25; for viability at 62.5 µg/mL: 62.50 µg/mL, read-out: Validity (%) for sample concentrations (µg/mL) 62.50; for viability at 125 µg/mL: read-out: Validity (%) for sample concentrations (µg/mL) 125; for viability at 250 µg/mL: read-out: Validity (%) for sample concentrations (µg/mL) 250; for viability at 500 µg/mL: read-out: Validity (%) for sample concentrations (µg/mL) 500; for viability at 1000 µg/mL: read-out: Validity (%) for sample concentrations (µg/mL) 1000
Experimental: as §4, with “On the following day, cells were treated with different concentrations (0, 1, 10, 31.25, 62.5, 125, 250, 500 µg/mL) of 16 fluorene derivatives in fresh medium and incubated for another 24 h.” left out

[6] = test system: Klebsiella pneumoniae (K. pneumoniae), multidrug resistant clinical isolate; experiment: agar well diffusion assay; format: cell-based; details: 24 h, 500 µg/mL of tested compound
Description: as §1, §2, §3

Compound	zone of inhibition at 500 µg/mL [1] [mm]	viability at 1 µg/mL [3] [%]	viability at 10 µg/mL [3] [%]	viability at 31.25 µg/mL [3] [%]	viability at 62.5 µg/mL [3] [%]	viability at 125 µg/mL [3] [%]	viability at 250 µg/mL [3] [%]	viability at 500 µg/mL [3] [%]	IC50 [3] [µg/mL]	viability at 31.25 µg/mL [4] [%]	viability at 62.5 µg/mL [4] [%]	viability at 125 µg/mL [4] [%]	viability at 250 µg/mL [4] [%]	viability at 500 µg/mL [4] [%]	IC50 [4] [µg/mL]	viability at 1 µg/mL [5] [%]	viability at 10 µg/mL [5] [%]	viability at 31.25 µg/mL [5] [%]	viability at 62.5 µg/mL [5] [%]	viability at 125 µg/mL [5] [%]	further results
O=C1C(Cl)C(c2ccccc2)N1c1nc(-c2cc(Cl)cc3c2-c2ccc(Cl)cc2C3)cs1 (stereo not shown) [6a, 3-Chloro-1-(4-(2,7-dichloro-9H-fluoren-4-yl)thiazol-2-yl)-4-phenylazetidin-2-one]	13	99.4	92.4	90.7	83.1	78.3	69.6	63.2	> 500	71.1	66.1	59.1	49.1	47.1	241 (≈ 484 µM)	98.6	89.1	79.2	75.9	70.3	zone of inhibition at 500 µg/mL [2]: 5 mm; viability at 250 µg/mL [5]: 30.7%; viability at 500 µg/mL [5]: 20.8%; viability at 1000 µg/mL [5]: 14.4%; IC50 [5]: 185 µg/mL (≈ 372 µM); melting point: 118 to 120 °C
O=C1C(Cl)C(C=Cc2ccccc2)N1c1nc(-c2cc(Cl)cc3c2-c2ccc(Cl)cc2C3)cs1 (stereo not shown) [6i, 3-Chloro-1-(4-(2,7-dichloro-9H-fluoren-4-yl)thiazol-2-yl)-4-styrylazetidin-2-one]	12	94.2	89.1	66.8	55.9	49.2	24.3	18.2	120 (≈ 229 µM)	83.1	76.5	56.5	49.2	39.2	240 (≈ 458 µM)	96.6	91.9	89.4	78.1	76.3	zone of inhibition at 500 µg/mL [6]: 3 mm; viability at 250 µg/mL [5]: 67.9%; viability at 500 µg/mL [5]: 53.3%; viability at 1000 µg/mL [5]: 49.4%; IC50 [5]: 801 µg/mL (≈ 1530 µM); melting point: 110 to 112 °C
